Results published in patent US7344850B2, “Identification of active-site inhibitors of glycosyltransferases using a generalizable high-throughput screen” (Princeton University, priority 2003, dated 2008).
Read-outs that look alike come from different tables or passages of the source.

Assays:
[1] = target: T1, MurG (Escherichia coli, UniProt P17443); experiment: fluorescence polarization displacement assay with labeled donor F1; format: binding, E. coli; details: for Signal change at 25 μM (drop in fluorescence polarization): 25 μM competitor; for Kd: read-out: Dissociation constants
[2] = target: T1, MurG; experiment: radiometric kinetic assay (incorporation of 14C-GlcNAc into Lipid II), secondary screen and IC50; format: biochemical, E. coli; details: for inhibition pattern with respect to UDP-GlcNAc: kinetic analysis
[3] = target: T1, MurG; details: biotin-capture assay, C10-Lipid I acceptor; cited from earlier work
[4] = target: T2, OGT (Homo sapiens, UniProt O15294); experiment: Assay for OGT; format: biochemical
T2 construct: His tag; made in house; host or cells: E. coli BL21 (DE3) (Novagen)
T2 sequence (O15294 51-920 isoform O15294-2 limits assumed): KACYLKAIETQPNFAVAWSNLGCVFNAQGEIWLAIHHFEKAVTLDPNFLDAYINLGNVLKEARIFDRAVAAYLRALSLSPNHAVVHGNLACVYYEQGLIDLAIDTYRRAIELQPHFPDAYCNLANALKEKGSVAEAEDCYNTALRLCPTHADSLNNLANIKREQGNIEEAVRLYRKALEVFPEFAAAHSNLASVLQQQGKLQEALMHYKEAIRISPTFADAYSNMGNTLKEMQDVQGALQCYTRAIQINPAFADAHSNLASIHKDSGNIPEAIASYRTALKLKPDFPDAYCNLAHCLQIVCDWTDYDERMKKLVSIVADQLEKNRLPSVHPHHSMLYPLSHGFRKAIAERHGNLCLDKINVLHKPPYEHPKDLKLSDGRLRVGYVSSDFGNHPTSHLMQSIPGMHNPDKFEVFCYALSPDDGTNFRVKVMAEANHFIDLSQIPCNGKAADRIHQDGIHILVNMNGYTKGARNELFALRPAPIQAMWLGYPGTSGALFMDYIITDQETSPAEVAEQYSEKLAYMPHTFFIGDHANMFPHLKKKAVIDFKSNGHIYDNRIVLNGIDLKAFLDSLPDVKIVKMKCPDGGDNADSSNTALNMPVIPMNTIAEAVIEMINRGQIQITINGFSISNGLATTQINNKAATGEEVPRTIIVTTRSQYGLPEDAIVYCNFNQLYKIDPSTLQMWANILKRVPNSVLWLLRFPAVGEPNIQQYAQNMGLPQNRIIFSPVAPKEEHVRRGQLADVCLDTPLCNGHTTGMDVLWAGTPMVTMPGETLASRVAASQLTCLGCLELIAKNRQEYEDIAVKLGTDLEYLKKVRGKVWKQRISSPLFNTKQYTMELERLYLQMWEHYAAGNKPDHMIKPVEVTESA
Method: The mitochondrial splice variant of OGT, minus the first 50 amino acids, was cloned into pET 32b, and expressed from Novagen BL21 (DE3) cells. The pellet was lysed with B-PER (Pierce) and rLysozyme (Novagen) and the soluble fraction was purified using His-Bind Resin (Novagen). Assay reaction buffer was 10 mM Tris pH 7.4 with 100 μg/mL BSA. […] Inhibitors tested were added in 0.5 μL of DMSO and the final reaction volume was 20 μL. The reactions were quenched after 50 min at room temperature with 10 μL of formic acid and spotted onto phosphocellulose (Whatman P81) paper disks. The disks were washed for 3×5 min with 1% phosphoric acid, 1 min with acetone and dried before counting. The samples were measured by liquid scintillation counting.

[5] = target: PBP1b (Escherichia coli, UniProt P02919); experiment: Assays for transglycosylase PBP1b; format: biochemical
Method: The protein was purified as described. Chen, L., Men, H., Ha, S., Ye, X.-Y., Brunner, L., Hu, Y., Walker, S. Biochemistry 2002; Tetrahedron 58, 6585 (2002). Assays were carried out by separately incubating varying amounts of ^14C-GlcNAc-labeled C35 Lipid II (specific activity=273 cpm/pmol) and inhibitors in eppendorf tubes containing 9 μL of buffer (50 mM HEPES at pH 7.5, 10 mM CaCl2, 1000 U/mL penicillin G, 0.2 mM decyl PEG, and 11% DMSO), and 1 μL PBP1b (from a solution freshly prepared by diluting the 50% glycerol stock 20-fold into 5 mM Tris buffer, pH 8.0, containing 8 mM decyl PEG) for 10 min. Reactions were started by adding 1 μL of the above PBP1b mixture to the substrate solution, and were typically stopped after 15 min by adding 10 μL ice cold 10 mM Tris (pH 8.0) containing 0.2% Triton X-100. Reactions were left on ice until spotted on cellulose chromatography paper (3M Whatman chromatography paper). Products and starting material were separated following the works of Anderson et al. using chromatography (isobutyric acid: 1N NH4OH=5:3) and quantitated by scintillation counting. Biochemistry 53, 881 (1965).

[6] = target: GtfB (Amycolatopsis orientalis, UniProt P96559); experiment: biochemical
Chain of GtfB (P96559 whole entry): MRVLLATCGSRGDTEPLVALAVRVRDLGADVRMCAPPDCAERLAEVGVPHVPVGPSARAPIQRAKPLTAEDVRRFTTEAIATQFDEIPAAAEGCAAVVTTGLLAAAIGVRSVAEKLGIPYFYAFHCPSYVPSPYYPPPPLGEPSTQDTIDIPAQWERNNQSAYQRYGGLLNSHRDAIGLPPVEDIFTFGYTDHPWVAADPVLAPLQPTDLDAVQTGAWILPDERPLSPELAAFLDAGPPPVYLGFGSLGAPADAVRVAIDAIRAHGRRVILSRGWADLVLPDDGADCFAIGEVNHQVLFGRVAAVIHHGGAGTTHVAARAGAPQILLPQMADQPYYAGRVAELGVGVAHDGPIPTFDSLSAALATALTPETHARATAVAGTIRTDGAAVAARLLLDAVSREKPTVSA
Method: Inhibitors, dissolved in DMSO, were added at the indicated concentrations to 20 μL reactions containing 50 nM GtfB, 2 mM UDP-glucose, 75 mM Tricine (pH 9), 4 mM TCEP and 600 μM vancomycin aglycone. For consistency, all reactions contained 5% DMSO. Reactions were incubated at 37° C. for 1.5 hr, then quenched with 20 μL cold methanol and centrifuged at 13,000 rpm for 10 min. Reaction mixtures were resolved by analytical HPLC, using a gradient of 0-45% acetonitrile in water/0.1% TFA over 15 min, at a flow rate of 1 mL per minute. Product formation was monitored by UV absorbance at 285 nm.

T1 sequence (P17443 whole entry): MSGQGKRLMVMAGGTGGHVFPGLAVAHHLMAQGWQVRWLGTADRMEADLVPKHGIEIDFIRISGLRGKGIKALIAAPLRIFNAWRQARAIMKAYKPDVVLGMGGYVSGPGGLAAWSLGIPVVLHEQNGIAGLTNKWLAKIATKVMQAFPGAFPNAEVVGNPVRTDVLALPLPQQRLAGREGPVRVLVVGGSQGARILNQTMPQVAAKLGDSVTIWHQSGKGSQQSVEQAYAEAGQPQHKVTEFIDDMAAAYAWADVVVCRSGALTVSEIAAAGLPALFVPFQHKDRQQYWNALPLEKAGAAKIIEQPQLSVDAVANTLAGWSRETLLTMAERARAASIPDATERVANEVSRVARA
Chain of PBP1b (P02919 whole entry): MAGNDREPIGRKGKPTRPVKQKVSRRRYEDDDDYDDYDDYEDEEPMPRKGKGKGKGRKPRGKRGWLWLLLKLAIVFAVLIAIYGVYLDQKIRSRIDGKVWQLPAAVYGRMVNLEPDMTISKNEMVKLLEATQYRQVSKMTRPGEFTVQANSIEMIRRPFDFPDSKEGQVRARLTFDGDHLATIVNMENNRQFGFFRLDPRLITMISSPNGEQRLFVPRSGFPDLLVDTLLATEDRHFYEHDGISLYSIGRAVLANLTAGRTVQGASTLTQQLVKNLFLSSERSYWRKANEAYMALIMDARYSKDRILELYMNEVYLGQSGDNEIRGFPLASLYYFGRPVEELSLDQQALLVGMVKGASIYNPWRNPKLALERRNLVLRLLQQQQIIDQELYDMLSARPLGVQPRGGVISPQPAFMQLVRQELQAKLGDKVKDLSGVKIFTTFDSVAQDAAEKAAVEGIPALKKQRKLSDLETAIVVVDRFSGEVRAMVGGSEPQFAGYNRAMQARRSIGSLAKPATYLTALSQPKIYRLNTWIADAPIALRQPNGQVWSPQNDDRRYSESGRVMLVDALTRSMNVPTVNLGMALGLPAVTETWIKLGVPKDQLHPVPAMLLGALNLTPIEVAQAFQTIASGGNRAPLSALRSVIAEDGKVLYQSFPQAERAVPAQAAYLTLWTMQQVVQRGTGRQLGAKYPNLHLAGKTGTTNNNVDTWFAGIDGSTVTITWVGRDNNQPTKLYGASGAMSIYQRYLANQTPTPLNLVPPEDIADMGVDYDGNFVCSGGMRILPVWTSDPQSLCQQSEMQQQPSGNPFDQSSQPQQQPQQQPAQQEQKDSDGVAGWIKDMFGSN

Compound | Signal change at 25 μM (drop in fluorescence polarization) [1] [%] | IC50 [3] [µM] | IC50 [2] [µM] | IC50 ([4]; read-out: IC50 OGT) [µM] | IC50 ([5]; read-out: IC50 PBP1b) [µM] | IC50 [6] [µM] | Kd ([1]; displacement of F1 from MurG) [µM] | also measured
O=c1ccn([C@@H]2O[C@H](COP(=O)(O)OP(=O)(O)O)[C@@H](O)[C@H]2O)c(=O)[nH]1 [UDP, uridine diphosphate] | 50 | 65 ± 1 | – | – | – | – | – | polarization reading relative to wells containing only MurG and labeled donor ([1]; 25 μM UDP control well): approximately 50%; Kd [1]: 2.6 ± 0.2 µM; inhibition at 5 µM ([2]; read-out: inhibition of MurG reaction (drop in product formation)): 50%
O=C1/C(=C2/C(=O)N(Cc3ccccc3)c3ccc(Br)cc32)SC(=S)N1CCS(=O)(=O)O [Compound 3] | – | – | 3.5 | > 100 | > 100 | 15 | – | –
O=C(O)c1ccc(N2C(=O)/C(=C/c3ccc(-c4ccc(Br)cc4)o3)C=C2c2ccccc2)cc1 [Compound 7] | – | – | 5.4 | > 100 | > 100 | 100 | – | inhibition pattern with respect to UDP-GlcNAc [2]: competitive inhibitors
CC(=O)N[C@H]1[C@@H](OP(=O)(O)OP(=O)(O)OC[C@H]2O[C@@H](n3ccc(=O)[nH]c3=O)[C@H](O)[C@@H]2O)O[C@H](CO)[C@H](O)[C@@H]1O [UDP-GalNAc] | 10 | > 1000 | – | – | – | – | 73.1 ± 14.1 | –
O=c1ccn([C@@H]2O[C@H](COP(=O)(O)O)[C@@H](O)[C@H]2O)c(=O)[nH]1 [UMP] | <10 | 600 ± 50 | – | – | – | – | 99.6 ± 12.2 | –
CC1CCN(CN2C(=O)/C(=C\c3ccc(C(C)(C)C)cc3)SC2=S)CC1 [Compound 1, 5-(4-tert-Butyl-benzylidene)-3-(4-methyl-piperidin-1-ylmethyl)-2-thioxo-thiazolidin-4-one] | – | – | 1.4 | > 100 | > 100 | 15 | – | inhibition pattern with respect to UDP-GlcNAc [2]: competitive inhibitors
O=C1NC(=O)N(c2ccc(Cl)cc2)C(=O)/C1=C/c1ccc(Br)o1 [Compound 4] | – | – | 6.4 | – | – | 11 | – | IC50 [4]: > 100 µM; IC50 [5]: > 100 µM
O=C(O)CN1C(=O)/C(=C\c2cc(Cl)cc(Br)c2O)SC1=S [Compound 2] | – | – | 3.4 | > 100 | > 100 | 4 | – | –
CC(=O)N[C@H]1[C@@H](OP(=O)(O)OP(=O)(O)OC[C@H]2O[C@@H](n3ccc(=O)[nH]c3=O)[C@H](O)[C@@H]2O)O[C@H](CO)[C@@H](O)[C@@H]1O [UDP-GlcNAc, UDP-N-acetylglucosamine] | – | – | – | – | – | – | 1.8 ± 0.2 | –
Nc1ncnc2c1ncn2[C@@H]1O[C@H](COP(=O)(O)OP(=O)(O)O)[C@@H](O)[C@H]1O [ADP] | <10 | 1260 ± 300 | – | – | – | – | 88.2 ± 26.9 | –
Cc1cc(/C=C2\C(=O)NC(=S)N(c3cccc(Cl)c3)C2=O)c(C)n1-c1cc(C(=O)O)cc(C(=O)O)c1 [Compound 5] | – | – | 1.4 | – | – | 50 | – | inhibition pattern with respect to UDP-GlcNAc [2]: competitive inhibitors; IC50 [4]: > 100 µM; IC50 [5]: > 100 µM
CC(C)(C)c1ccc(OCCOc2cccc(C=C3C(=O)NC(=S)NC3=O)c2)cc1 [Compound 6] | – | – | 4 | – | – | 100 | – | IC50 [4]: > 100 µM; IC50 [5]: > 100 µM
